Experimental data published in BigSolDB 2.1.

O=C(N[C@@H](Cc1c[nH]c2ccccc12)C(=O)O)OCc1ccccc1
solubility (mole fraction) (in 2-butanone, 283.15 K): 0.133 | solubility (mole fraction) (in 2-butanone, 288.15 K): 0.143 | solubility (mole fraction) (in 2-butanone, 293.15 K): 0.152 | solubility (mole fraction) (in 2-butanone, 298.15 K): 0.161 | solubility (mole fraction) (in 2-butanone, 303.15 K): 0.173 | solubility (mole fraction) (in 2-butanone, 308.15 K): 0.182 | solubility (mole fraction) (in 2-butanone, 313.15 K): 0.196 | solubility (mole fraction) (in 2-butanone, 318.15 K): 0.205 | solubility (mole fraction) (in 2-butanone, 323.15 K): 0.221 | solubility (mole fraction) (in acetone, 283.15 K): 0.204 | solubility (mole fraction) (in acetone, 288.15 K): 0.23 | solubility (mole fraction) (in acetone, 293.15 K): 0.264 | solubility (mole fraction) (in acetone, 298.15 K): 0.306 | solubility (mole fraction) (in acetone, 303.15 K): 0.358 | solubility (mole fraction) (in acetone, 308.15 K): 0.409 | solubility (mole fraction) (in acetone, 313.15 K): 0.458 | solubility (mole fraction) (in acetone, 318.15 K): 0.505 | solubility (mole fraction) (in acetone, 323.15 K): 0.557 | solubility (mole fraction) (in acetonitrile, 283.15 K): 0.0197 | solubility (mole fraction) (in acetonitrile, 288.15 K): 0.025 | solubility (mole fraction) (in acetonitrile, 293.15 K): 0.0305 | solubility (mole fraction) (in acetonitrile, 298.15 K): 0.0428 | solubility (mole fraction) (in acetonitrile, 303.15 K): 0.06 | solubility (mole fraction) (in acetonitrile, 308.15 K): 0.0766 | solubility (mole fraction) (in acetonitrile, 313.15 K): 0.0967 | solubility (mole fraction) (in acetonitrile, 318.15 K): 0.117 | solubility (mole fraction) (in acetonitrile, 323.15 K): 0.134 | solubility (mole fraction) (in ethanol, 283.15 K): 0.0567 | solubility (mole fraction) (in ethanol, 288.15 K): 0.0689 | solubility (mole fraction) (in ethanol, 293.15 K): 0.0826 | solubility (mole fraction) (in ethanol, 298.15 K): 0.1 | solubility (mole fraction) (in ethanol, 303.15 K): 0.124 | solubility (mole fraction) (in ethanol, 308.15 K): 0.142 | solubility (mole fraction) (in ethanol, 313.15 K): 0.164 | solubility (mole fraction) (in ethanol, 318.15 K): 0.189 | solubility (mole fraction) (in ethanol, 323.15 K): 0.208 | solubility (mole fraction) (in ethyl acetate, 283.15 K): 0.0484 | solubility (mole fraction) (in ethyl acetate, 288.15 K): 0.0559 | solubility (mole fraction) (in ethyl acetate, 293.15 K): 0.0629 | solubility (mole fraction) (in ethyl acetate, 298.15 K): 0.0707 | solubility (mole fraction) (in ethyl acetate, 303.15 K): 0.0794 | solubility (mole fraction) (in ethyl acetate, 308.15 K): 0.0906 | solubility (mole fraction) (in ethyl acetate, 313.15 K): 0.103 | solubility (mole fraction) (in ethyl acetate, 318.15 K): 0.118 | solubility (mole fraction) (in ethyl acetate, 323.15 K): 0.133 | solubility (mole fraction) (in isobutanol, 283.15 K): 0.00972 | solubility (mole fraction) (in isobutanol, 288.15 K): 0.0123 | solubility (mole fraction) (in isobutanol, 293.15 K): 0.0177 | solubility (mole fraction) (in isobutanol, 298.15 K): 0.0245 | solubility (mole fraction) (in isobutanol, 303.15 K): 0.0302 | solubility (mole fraction) (in isobutanol, 308.15 K): 0.0379 | solubility (mole fraction) (in isobutanol, 313.15 K): 0.045 | solubility (mole fraction) (in isobutanol, 318.15 K): 0.0547 | solubility (mole fraction) (in isobutanol, 323.15 K): 0.0692 | solubility (mole fraction) (in isopropanol, 283.15 K): 0.0299 | solubility (mole fraction) (in isopropanol, 288.15 K): 0.0351 | solubility (mole fraction) (in isopropanol, 293.15 K): 0.0439 | solubility (mole fraction) (in isopropanol, 298.15 K): 0.0536 | solubility (mole fraction) (in isopropanol, 303.15 K): 0.0656 | solubility (mole fraction) (in isopropanol, 308.15 K): 0.08 | solubility (mole fraction) (in isopropanol, 313.15 K): 0.0917 | solubility (mole fraction) (in isopropanol, 318.15 K): 0.109 | solubility (mole fraction) (in isopropanol, 323.15 K): 0.125 | solubility (mole fraction) (in methyl acetate, 283.15 K): 0.0663 | solubility (mole fraction) (in methyl acetate, 288.15 K): 0.0737 | solubility (mole fraction) (in methyl acetate, 293.15 K): 0.0836 | solubility (mole fraction) (in methyl acetate, 298.15 K): 0.0968 | solubility (mole fraction) (in methyl acetate, 303.15 K): 0.112 | solubility (mole fraction) (in methyl acetate, 308.15 K): 0.125 | solubility (mole fraction) (in methyl acetate, 313.15 K): 0.141 | solubility (mole fraction) (in methyl acetate, 318.15 K): 0.162 | solubility (mole fraction) (in methyl acetate, 323.15 K): 0.182 | solubility (mole fraction) (in n-butanol, 283.15 K): 0.0231 | solubility (mole fraction) (in n-butanol, 288.15 K): 0.0278 | solubility (mole fraction) (in n-butanol, 293.15 K): 0.0334 | solubility (mole fraction) (in n-butanol, 298.15 K): 0.0403 | solubility (mole fraction) (in n-butanol, 303.15 K): 0.0526 | solubility (mole fraction) (in n-butanol, 308.15 K): 0.0666 | solubility (mole fraction) (in n-butanol, 313.15 K): 0.0784 | solubility (mole fraction) (in n-butanol, 318.15 K): 0.0941 | solubility (mole fraction) (in n-butanol, 323.15 K): 0.114 | solubility (mole fraction) (in n-pentanol, 283.15 K): 0.0181 | solubility (mole fraction) (in n-pentanol, 288.15 K): 0.0209 | solubility (mole fraction) (in n-pentanol, 293.15 K): 0.0252 | solubility (mole fraction) (in n-pentanol, 298.15 K): 0.0322 | solubility (mole fraction) (in n-pentanol, 303.15 K): 0.0393 | solubility (mole fraction) (in n-pentanol, 308.15 K): 0.0458 | solubility (mole fraction) (in n-pentanol, 313.15 K): 0.0536 | solubility (mole fraction) (in n-pentanol, 318.15 K): 0.0631 | solubility (mole fraction) (in n-pentanol, 323.15 K): 0.0717 | solubility (mole fraction) (in n-propanol, 283.15 K): 0.0283 | solubility (mole fraction) (in n-propanol, 288.15 K): 0.0389 | solubility (mole fraction) (in n-propanol, 293.15 K): 0.0502 | solubility (mole fraction) (in n-propanol, 298.15 K): 0.064 | solubility (mole fraction) (in n-propanol, 303.15 K): 0.0763 | solubility (mole fraction) (in n-propanol, 308.15 K): 0.0881 | solubility (mole fraction) (in n-propanol, 313.15 K): 0.104 | solubility (mole fraction) (in n-propanol, 318.15 K): 0.123 | solubility (mole fraction) (in n-propanol, 323.15 K): 0.141 | solubility (mole fraction) (in water, 283.15 K): 4.06e-05 | solubility (mole fraction) (in water, 288.15 K): 5.32e-05 | solubility (mole fraction) (in water, 293.15 K): 6.49e-05 | solubility (mole fraction) (in water, 298.15 K): 7.79e-05 | solubility (mole fraction) (in water, 303.15 K): 8.87e-05 | solubility (mole fraction) (in water, 308.15 K): 9.81e-05 | solubility (mole fraction) (in water, 313.15 K): 0.000109 | solubility (mole fraction) (in water, 318.15 K): 0.000118 | solubility (mole fraction) (in water, 323.15 K): 0.000125
